In PubChem BioAssay (NCI):
Values joined by “and” are separate entries in the source; they are usually repeats but may differ in a detail not shown here. Equal entries are not always repeated.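 Tested at 5 concentrations; 48 h exposure; 96-well plates; endpoints linearly interpolated, else capped at highest concentration. At the GI50, growth is halved. TGI is the concentration that stops growth completely.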

Assays:
Test in all cases: NCI anticancer screen, dose series, 48 h
[1] = system: M14 melanoma
[2] = system: OVCAR-8 ovarian
[3] = system: A498 renal
[4] = system: MOLT-4 leukemia
[5] = system: SNB-78 CNS
[6] = system: SF-295 CNS
[7] = system: COLO 205 colon
[8] = system: BT-549 breast
[9] = system: HOP-18 NSCLC
[10] = system: MCF7 breast

SMILES	TGI [1]	TGI [2]	TGI [3]	TGI [4]	TGI [5]	TGI [6]	TGI [7]	GI50 [1]	GI50 [3]	GI50 [4]	GI50 [8]	TGI [8]	GI50 [6]	TGI [9]	GI50 [10]	TGI [10]	GI50 [7]	GI50 [9]	GI50 [2]	GI50 [5]
CC[C@H](C)N(CCN)C(=O)c1cc2ccccc2c(-c2ccccc2Cl)n1	44.8 µM	27.6 µM	17.4 µM	24.9 µM	31.6 µM	28.4 µM	17.9 µM													
COc1ccc(C(=O)/C(Br)=C/C(=O)O)cc1	79.3 µM and 120 µM	326 µM	192 µM and 77.3 µM	98.5 µM and 86.5 µM		175 µM and 140 µM	34.4 µM and 54.2 µM	52.9 µM	58.3 µM	21 µM	242 µM	96.4 µM and 406 µM	33.5 µM	139 µM	7.41 µM	44.5 µM and 59.9 µM	15.1 µM			
CN1CC[C@@H](c2c(O)cc(O)c3c(=O)cc(-c4ccccc4Cl)oc23)[C@@H](O)C1	0.225 µM and 0.226 µM and 0.104 µM		0.181 µM and 1.13 µM	0.662 µM and 0.521 µM	> 17.6 µM		0.223 µM and 0.116 µM	0.0771 µM and 0.0278 µM	0.0604 µM	0.0429 µM and 0.0288 µM	0.171 µM and 0.178 µM		0.0994 µM and 0.0955 µM and 0.0425 µM		0.0629 µM and 0.046 µM	> 77.4 µM	0.0917 µM			
CN1CCN(CN2C(=O)C3C4C=CC(C3C2=O)C2C3C(=O)N(CN5CCN(C)CC5)C(=O)C3C42)CC1 (configuration not stated)	30.8 µM and 34.2 µM and 40.8 µM	35.7 µM and > 65.3 µM and 59.9 µM	> 100 µM and 97.9 µM	60.6 µM and 51.3 µM and 55.9 µM		97.4 µM and > 100 µM	33.2 µM and 34.5 µM and 35.3 µM					69.6 µM	32.2 µM and 86.2 µM and 49.2 µM	71 µM and 34.4 µM and > 100 µM		> 100 µM		34.4 µM and 13 µM and 48.6 µM		
Cc1ccc(OCC(=O)N2N=C(c3ccccc3)CC2(O)c2ccccc2)cc1 (configuration not stated)	90 µM	> 100 µM		> 100 µM	51.5 µM	> 100 µM	> 100 µM													
CNC(P(=O)([O-])[O-])P(=O)([O-])[O-].N.N.[Pt+2]	> 100 µM	> 100 µM			> 100 µM	> 100 µM	> 100 µM	> 100 µM					> 100 µM	> 100 µM			> 100 µM	> 100 µM	> 100 µM	> 100 µM
Cc1ccc(CNc2c3ccccc3nc3ccccc23)cc1	3.24 µM	10.5 µM	2.92 µM	10.5 µM		8.87 µM	3.59 µM	1.53 µM	1.21 µM	2.85 µM	2.43 µM	6.34 µM	2.53 µM		1.99 µM	5.03 µM	1.57 µM		2.52 µM	
CC1=C(C(=O)Nc2c(C)cccc2C)C(c2ccc3c(c2)OCO3)C(C(=O)Nc2c(C)cccc2C)=C(C)N1	33.9 µM	44.2 µM		61.5 µM	78.8 µM	32.7 µM	47.1 µM							48.2 µM						
COC(=O)C1CC2(CC3=C1CCCC3)OCCO2 (configuration not stated)	> 100 µM	> 100 µM	> 100 µM		> 100 µM	> 100 µM	> 100 µM													
COc1cc(/C(C#N)=C/c2ccc3c(c2OC)OCO3)cc2c1OCO2	7.81 µM	> 60.9 µM	0.785 µM	19.9 µM		4.36 µM	3.14 µM	0.0477 µM	0.051 µM	0.111 µM	0.669 µM	29.3 µM	0.0428 µM		0.0482 µM	> 100 µM	0.0941 µM		0.243 µM	
COc1ccc(N=C2CSc3nnc(-c4cc(F)c(Cl)cc4Cl)n3N2)cc1	8.27 µM	10.7 µM	13 µM	14.9 µM		2.08 µM	16 µM	0.572 µM	1.54 µM	0.486 µM	1.77 µM	24.4 µM	0.347 µM		0.464 µM	19.8 µM	1.81 µM		2.33 µM	
Cc1cc2c(c(C#N)c1C)NC(=O)CCC2=O	> 100 µM	> 100 µM	> 100 µM	> 100 µM	> 100 µM	> 100 µM	> 100 µM													
CCN(CC)CCOc1nc2ccc(OC)cc2c2c1-c1ccc(OC)cc1C2=O	3.1 µM	2.26 µM	2.17 µM	1.85 µM		1.74 µM	1.93 µM	1.42 µM	0.802 µM	0.283 µM	5.94 µM	18 µM	0.519 µM		0.367 µM	1.53 µM	0.546 µM		0.526 µM	
COc1ccc(-c2nn3ncccc3c2-c2ccnc(Nc3ccc(Cl)c(C(F)(F)F)c3)n2)cc1	> 25 µM	> 25 µM	> 25 µM	> 25 µM		> 25 µM	> 25 µM	11.5 µM	6.52 µM	10.9 µM	10.2 µM	> 25 µM	9.96 µM		6.53 µM	> 25 µM	12.7 µM		8.58 µM	
CS(=O)(=O)CCNCc1nc(-c2ccc3ncnc(Nc4ccc(F)c(Cl)c4)c3c2)cs1	> 25 µM	> 25 µM	20.5 µM	> 25 µM		> 25 µM	> 25 µM	21.5 µM	3.32 µM	15.3 µM	> 25 µM	> 25 µM	> 25 µM		> 23.3 µM	> 25 µM	> 20.5 µM		14.4 µM	
C=C1CC2(OC1=O)C(=O)N(CCCCCCCN1C(=O)C3(CC(=C)C(=O)O3)c3ccccc31)c1ccccc12 (configuration not stated)	5.6 µM	5.05 µM	13.1 µM	5.53 µM		25 µM	5.58 µM	1.45 µM	5.17 µM	0.267 µM	2.22 µM	9.14 µM	10.2 µM		1.35 µM	6.9 µM	1.38 µM		1.16 µM	
N#Cc1c(-c2nc3ccccc3s2)c(=O)oc2cc(O)ccc12	> 100 µM	> 100 µM	> 100 µM	> 100 µM		> 100 µM	30.8 µM					62.8 µM				> 100 µM				
O=C(Nc1ccc(N2CCNCC2)cc1)c1[nH]ncc1Nc1ncnc2sc3c(c12)CCC3	1.64 µM	1.84 µM	1.58 µM	1.07 µM		1.95 µM	1.31 µM	0.146 µM	0.188 µM	0.0835 µM	1.13 µM	2.4 µM	0.359 µM		0.166 µM	1.3 µM	0.124 µM		0.36 µM	
O=P(O)(CCP(=O)(O)c1ccccc1)c1ccccc1	> 100 µM	> 100 µM	> 100 µM	> 100 µM		> 100 µM	> 100 µM					> 100 µM				> 100 µM				
Cn1c(=O)nc2n(-c3ccc(Cl)cc3)c3ccc(Cl)cc3nc-2c1=O	21.8 µM	52.5 µM	24.6 µM	65.7 µM	29.6 µM	19 µM														
CC(=O)Nc1ccc2c(c1)c(C1=C(c3cn(C)c4ccccc34)C(=O)NC1=O)cn2C	> 25 µM	> 25 µM	1.79 µM	13.8 µM		> 25 µM	> 25 µM	1.5 µM	0.538 µM	2.4 µM	1.55 µM	14.8 µM	1.18 µM		0.852 µM	> 15.7 µM	1.3 µM		2.68 µM	
Nc1ccn(CCOC(=O)c2ccccc2)c(=O)n1	> 100 µM	> 100 µM	> 100 µM		> 100 µM	> 100 µM	> 100 µM							> 100 µM						
Cc1ncc(CN=Cc2ccc(Cl)cc2)c(N)n1	> 100 µM	> 100 µM	> 100 µM	> 100 µM		> 100 µM	> 100 µM					> 100 µM				> 100 µM				
O=C(c1ccccc1)C(c1ccccc1)C1(O)C(=O)Nc2c(Cl)cc(Cl)cc21 (configuration not stated)	37.9 µM	32.9 µM		61.9 µM	67.4 µM	33.1 µM	33.7 µM							36.6 µM						
CNc1ccc2nc3ccc(=[N+](C)C)cc-3sc2c1	12 µM and 1.5 µM	1.79 µM and 1.55 µM	25.4 µM and 28.2 µM	12.1 µM and 9.36 µM		10.3 µM and 3.22 µM	3.03 µM and 1.44 µM	1.2 µM and 0.347 µM	2.98 µM and 6.49 µM	0.637 µM and 0.667 µM	4.87 µM and 5.73 µM	20.7 µM and 22.6 µM	1.35 µM and 0.411 µM		0.801 µM and 0.284 µM	6.84 µM and 3.62 µM	0.626 µM and 0.365 µM		0.298 µM and 0.278 µM	
COc1cc(O)c([C@@H]2C[C@H](CCc3ccc(O)cc3)O[C@H](c3ccc(O)cc3)C2)c(O)c1C(=O)/C=C/c1ccc(O)cc1	9.3 µM	10.5 µM	11.3 µM	4.24 µM		17.9 µM	5.4 µM	3.24 µM	4.24 µM	1.44 µM	2.39 µM	5.34 µM	3.83 µM		1.96 µM	4.61 µM	2.51 µM		3.17 µM	
CCOC(=O)C(=O)Nc1nc2c(s1)C(=O)c1ccccc1C2=O	32.7 µM	47.5 µM	33.2 µM	18.9 µM	24.8 µM		56.4 µM													
CCOC(=O)c1ccc(NC(=O)N2CC(C)OC(C)C2)cc1 (configuration not stated)	> 100 µM	> 100 µM	> 100 µM	> 100 µM		> 100 µM	> 100 µM	> 100 µM	> 100 µM	> 100 µM	> 100 µM	> 100 µM	> 100 µM		> 100 µM	> 100 µM	> 100 µM		> 100 µM	
